Assays:
[1] = In house foaming test (comparative foam heights); assay type: physicochemical; conditions: 1 wt % surfactant solution; relative to 1 wt % Sodium Laureth Sulphate (3EO) = 100
Procedure: A 1 wt % surfactant solution was prepared. The foam heights were measured using an in house foaming test and the results were compared with those obtained using a composition comprising 1 wt % Sodium Laureth Sulphate (3EO) [SLES].

[2] = system: Zein; experiment: In house qualitative test based on the Zein test (irritancy/mildness); assay type: in vitro; conditions: 1% surfactant solution; qualitative comparison
Procedure: The mass of residual Zein is determined gravimetrically.

Relative foam height compared to SLES as % [1] | Molecule | irritancy/mildness [2]
32% | CCCCCCCCCCCC(=O)OC[C@H](O)[C@H]1OC(=O)C(O)=C1O [Compound 1, Ascorbyl Monolaurate] | –
100% | Sodium Laureth Sulphate (3EO) | –
105% | Ascorbyl Monolaurate Sulphate [Compound 2] | milder than many commercially available personal care surfactants including Sodium Laureth Sulfate (3EO) [SLES]
